Experimental data from the supplement of paper PMC10307832.

compound: CO[C@@H]1[C@H](N(C)C(=O)c2ccccc2)C[C@H]2O[C@]1(C)n1c3ccccc3c3c4c(c5c6ccccc6n2c5c31)C(=O)NC4 [Midostaurin] + CC(=O)c1c(C)c2cnc(Nc3ccc(N4CCNCC4)cn3)nc2n(C2CCCC2)c1=O [Palbociclib] (partner 0.5 µM); test: relative viability (nuclei count vs DMSO), 5 days (fraction); higher = more cells survive; details: first compound 0.01 µM
Summary of the method: (§1)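 After 5 days of treatment, lung cancer cells in 1536-well plates were fixed and stained in a single step (final 0.05% Triton X-100, 1% formaldehyde, 1 ug/ml Hoechst) and their nuclei counted on 4× images. Treatment had been applied by pin tool the day after seeding as one drug alone or as a fixed anchor-drug dose with five library-drug doses (not always all listed) in √10 steps. Relative viability is the nuclei count of treated wells divided by that of vehicle wells, and values are medians of duplicate plates.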

Cell Line | relative viability
NCI-H2342 | 0.477
NCI-H727 | 0.628
NCI-H1650 | 0.297
NCI-H1993 | 0.495
SW 1573 | 0.422
NCI-H838 | 0.237
LCLC-103H | 0.449
NCI-H520 | 0.24
NCI-H2126 | 0.332
EMC-BAC-2 | 0.489
NCI-H2085 | 0.497
HCC-366 | 0.364
NCI-H1666 | 0.634
LK-2 | 0.595
NCI-H2087 | 0.213
NCI-H1648 | 0.35
SK-MES-1 | 0.326
H3255 | 0.317
COR-L23 | 0.259
COR-L 105 | 0.414
LOU-NH91 | 0.514
ChaGo-K-1 | 0.912
NCI-H2170 | 0.394
NCI-H522 | 1.01
SW 900 | 0.574
NCI-H441 | 0.265
NCI-H1395 | 0.626
NCI-H1793 | 0.305

same assay, conditions: first compound 0.03162 µM

Cell Line | relative viability
NCI-H2342 | 0.538
NCI-H727 | 0.666
NCI-H1650 | 0.409
NCI-H1993 | 0.802
SW 1573 | 0.504
NCI-H838 | 0.229
LCLC-103H | 0.484
NCI-H520 | 0.228
NCI-H2126 | 0.364
EMC-BAC-2 | 0.531
NCI-H2085 | 0.467
HCC-366 | 0.409
NCI-H1666 | 0.669
LK-2 | 0.692
NCI-H2087 | 0.232
SK-MES-1 | 0.359
H3255 | 0.327
COR-L23 | 0.346
COR-L 105 | 0.416
LOU-NH91 | 0.527
ChaGo-K-1 | 1
NCI-H2170 | 0.397
NCI-H522 | 0.876
SW 900 | 0.587
NCI-H441 | 0.219
NCI-H1395 | 0.753
NCI-H1793 | 0.349

same assay, conditions: first compound 0.1 µM

Cell Line | relative viability
NCI-H2342 | 0.491
NCI-H727 | 0.66
NCI-H1650 | 0.343
NCI-H1993 | 0.794
SW 1573 | 0.424
NCI-H838 | 0.251
LCLC-103H | 0.512
NCI-H520 | 0.246
NCI-H2126 | 0.359
EMC-BAC-2 | 0.489
NCI-H2085 | 0.491
HCC-366 | 0.389
NCI-H1666 | 0.661
LK-2 | 0.701
NCI-H2087 | 0.268
SK-MES-1 | 0.27
H3255 | 0.333
COR-L23 | 0.285
COR-L 105 | 0.396
LOU-NH91 | 0.499
ChaGo-K-1 | 0.889
NCI-H2170 | 0.406
NCI-H522 | 0.967
SW 900 | 0.545
NCI-H441 | 0.234
NCI-H1395 | 0.639
NCI-H1793 | 0.354

same assay, conditions: first compound 0.3162 µM

Cell Line | relative viability
NCI-H2342 | 0.547
NCI-H727 | 0.634
NCI-H1650 | 0.522
NCI-H1993 | 0.656
SW 1573 | 0.247
NCI-H838 | 0.185
LCLC-103H | 0.542
NCI-H520 | 0.276
NCI-H2126 | 0.383
EMC-BAC-2 | 0.456
NCI-H2085 | 0.494
HCC-366 | 0.384
NCI-H1666 | 0.657
LK-2 | 0.861
NCI-H2087 | 0.27
NCI-H1648 | 0.285
SK-MES-1 | 0.246
H3255 | 0.342
COR-L23 | 0.207
COR-L 105 | 0.4
LOU-NH91 | 0.552
ChaGo-K-1 | 0.935
NCI-H2170 | 0.454
NCI-H522 | 1.32
SW 900 | 0.639
NCI-H441 | 0.189
NCI-H1395 | 0.703
NCI-H1793 | 0.342

compound: CO[C@@H]1[C@H](N(C)C(=O)c2ccccc2)C[C@H]2O[C@]1(C)n1c3ccccc3c3c4c(c5c6ccccc6n2c5c31)C(=O)NC4 [Midostaurin] + C[C@@H](Oc1cc(-c2cnn(C3CCNCC3)c2)cnc1N)c1c(Cl)ccc(F)c1Cl [Crizotinib] (partner 1 µM); test: as above; details: first compound 0.01 µM
Summary of the method: as §1

Cell Line | relative viability
NCI-H727 | 0.861
NCI-H1650 | 1.06
EBC-1 | 0.164
NCI-H1703 | 0.73
NCI-H1993 | 0.879
SW 1573 | 0.704
NCI-H838 | 0.877
LCLC-103H | 1.05
NCI-H520 | 0.69
NCI-H2126 | 1.02
EMC-BAC-2 | 0.704
NCI-H2085 | 0.769
Calu-6 | 0.685
HCC-366 | 0.504
NCI-H1666 | 0.874
NCI-H596 | 0.957
LK-2 | 0.243
NCI-H2087 | 0.794
SK-MES-1 | 0.966
H3255 | 0.829
COR-L23 | 0.653
COR-L 105 | 0.835
IA-LM | 0.751
LOU-NH91 | 0.753
ChaGo-K-1 | 1.09
NCI-H2170 | 1.18
A549 | 0.796
NCI-H441 | 0.778
NCI-H1299 | 0.929
NCI-H1563 | 0.817

same assay, conditions: first compound 0.03162 µM

Cell Line | relative viability
NCI-H727 | 0.524
NCI-H1650 | 1.06
EBC-1 | 0.231
NCI-H1703 | 0.569
NCI-H1993 | 0.762
SW 1573 | 1.01
NCI-H838 | 0.634
LCLC-103H | 1.01
NCI-H520 | 0.668
NCI-H2126 | 0.951
EMC-BAC-2 | 0.754
NCI-H2085 | 0.805
Calu-6 | 0.768
HCC-366 | 0.505
NCI-H1666 | 1.12
NCI-H596 | 1.12
LK-2 | 0.235
NCI-H2087 | 0.655
SK-MES-1 | 0.929
H3255 | 0.718
COR-L23 | 0.633
COR-L 105 | 0.738
IA-LM | 0.712
LOU-NH91 | 0.748
ChaGo-K-1 | 1.15
NCI-H2170 | 1.24
A549 | 0.665
NCI-H441 | 0.807
NCI-H1299 | 0.914
NCI-H1563 | 0.872

same assay, conditions: first compound 0.1 µM

Cell Line | relative viability
NCI-H727 | 0.729
NCI-H1650 | 1.03
EBC-1 | 0.197
NCI-H1703 | 0.684
NCI-H1993 | 1.06
SW 1573 | 0.782
NCI-H838 | 0.812
LCLC-103H | 0.982
NCI-H520 | 0.691
NCI-H2126 | 0.965
EMC-BAC-2 | 0.647
NCI-H2085 | 0.814
Calu-6 | 0.859
HCC-366 | 0.445
NCI-H1666 | 0.858
NCI-H596 | 1.11
LK-2 | 0.233
NCI-H2087 | 0.835
SK-MES-1 | 0.931
H3255 | 0.937
COR-L23 | 0.541
COR-L 105 | 0.692
IA-LM | 0.606
LOU-NH91 | 0.758
ChaGo-K-1 | 1.05
NCI-H2170 | 1.15
A549 | 0.589
NCI-H441 | 0.596
NCI-H1299 | 0.941
NCI-H1563 | 0.85

same assay, conditions: first compound 0.3162 µM

Cell Line | relative viability
NCI-H727 | 0.459
NCI-H1650 | 0.702
EBC-1 | 0.2
NCI-H1703 | 0.221
NCI-H1993 | 0.893
SW 1573 | 0.631
NCI-H838 | 0.524
LCLC-103H | 1.02
NCI-H520 | 0.525
NCI-H2126 | 1.04
EMC-BAC-2 | 0.696
NCI-H2085 | 0.582
Calu-6 | 0.617
HCC-366 | 0.522
NCI-H1666 | 0.787
NCI-H596 | 1.1
LK-2 | 0.17
NCI-H2087 | 0.656
SK-MES-1 | 0.94
H3255 | 0.892
COR-L23 | 0.464
COR-L 105 | 0.698
IA-LM | 0.448
LOU-NH91 | 0.721
ChaGo-K-1 | 1.03
NCI-H2170 | 1.29
A549 | 0.26
NCI-H441 | 0.764
NCI-H1299 | 0.86
NCI-H1563 | 0.834

compound: COc1cc(-c2nn([C@H]3CC[C@H](N4CCN(C(C)=O)CC4)CC3)c3ncnc(N)c23)ccc1NC(=O)c1cc2ccccc2n1C + N=C(N)NC(=N)NCCc1ccccc1 [Phenformin] (partner 250 µM); test: as above; details: first compound 0.0128 µM
Summary of the method: as §1

Cell Line | relative viability
NCI-H2342 | 0.529
NCI-H1623 | 0.622
NCI-H727 | 0.559
NCI-H1650 | 0.41
NCI-H1993 | 0.539
SW 1573 | 0.344
NCI-H838 | 0.694
LCLC-103H | 0.397
NCI-H520 | 0.45
NCI-H2126 | 0.534
EMC-BAC-2 | 0.563
NCI-H2085 | 0.756
HCC-366 | 0.566
NCI-H1666 | 0.568
NCI-H596 | 0.665
LK-2 | 0.423

Cell Line | relative viability
NCI-H2087 | 0.505
SK-MES-1 | 0.785
H3255 | 0.347
COR-L23 | 0.424
COR-L 105 | 0.474
LOU-NH91 | 0.768
ChaGo-K-1 | 0.472
NCI-H2170 | 0.437
A549 | 0.178
NCI-H522 | 0.598
SW 900 | 0.639
NCI-H441 | 0.855
NCI-H1395 | 0.419
NCI-H1793 | 0.388
NCI-H1563 | 0.608

same assay, conditions: first compound 0.04048 µM

Cell Line | relative viability
NCI-H2342 | 0.584
NCI-H1623 | 0.508
NCI-H1650 | 0.57
NCI-H1993 | 0.509
SW 1573 | 0.34
NCI-H838 | 0.53
LCLC-103H | 0.327
NCI-H520 | 0.521
NCI-H2126 | 0.501
EMC-BAC-2 | 0.633
NCI-H2085 | 0.655
HCC-366 | 0.664
NCI-H1666 | 0.567
NCI-H596 | 0.896
LK-2 | 0.38
SK-MES-1 | 0.708
H3255 | 0.297
COR-L23 | 0.559
COR-L 105 | 0.58
LOU-NH91 | 0.778
ChaGo-K-1 | 0.491
NCI-H2170 | 0.412
A549 | 0.203
NCI-H522 | 0.625
SW 900 | 0.66
NCI-H441 | 0.757
NCI-H1395 | 0.461
NCI-H1793 | 0.252
NCI-H1563 | 0.635

same assay, conditions: first compound 0.128 µM

Cell Line | relative viability
NCI-H2342 | 0.637
NCI-H1623 | 0.603
NCI-H727 | 0.495
NCI-H1650 | 0.435
NCI-H1993 | 0.486
SW 1573 | 0.371
